Measured values from PMC11796224, “Merck Open Global Health Library in vitro screening against Schistosoma mansoni identified two new substances with antischistosomal activities for further development” (Parasites & Vectors, 2025).
Like-named read-outs stand apart in the source and are kept apart here.

Assays:
adult S. mansoni couples = experiment: In vitro screening of OGHL compounds and analogues against adult S. mansoni couples (Giessen); format: cell-based, Schistosoma mansoni; details: 10 µM; for Effect on egg production: after 24 h, compared to control
Experimental: For in vitro culture in Giessen, M199 medium (Gibco) containing 10% newborn calf serum, 1% HEPES (1 M) and 1% ABAM solution (10,000 units penicillin, 10 mg streptomycin and 25 µg amphotericin B per millilitre) were used. After perfusion, the worms were transferred to petri dishes with 5 mL medium using featherweight tweezers. The worms were cultured at 37 °C and 5% CO2. After 24 h, stably paired couples were selected for inhibitor assays.
The initial screening by the Giessen team covered the 250 compounds of the OGHL, and in a subsequent, second screening approach, an additional 58 analogues of the compounds OGHL22 and OGHL121, which were tested on S. mansoni couples in vitro. For each compound, three replicates of five couples randomised from different hamsters were used. The couples were transferred to 6-well plates (or 12-well plates) containing 2 mL pre-heated medium. For each compound, the stock solution was pre-diluted in pre-heated medium, and then added to each replicate, resulting in a final volume of 2.5 mL and a final concentration of 10 µM. A negative control was included for all assays. For this, three replicates were prepared with DMSO (0.1%) as volume substitution of the stock solution. The worms were cultured at 37 °C and 5% CO2. As physiological parameters, worm motility, pairing stability, and attachment were assessed after 4 h and 24 h. After 24 h, egg production was also estimated (see below).
For the first screening approach, the Giessen team evaluated pairing stability by counting couples at the time of scoring. Attachment was determined by counting the number of worms (couples or single worms) that were attached to any surface. Motility was scored on a scale of 0–4. The average activity of the worms in the negative control was used as a reference value for normal activity: 4 indicated increased activity, 3 normal activity, 2 reduced activity, 1 little activity with occasional head and tail movements and/or gut movement, 0 no activity for at least 20 s. The number of eggs was estimated after 24 h. Compared to the control, categories for egg production were defined as fewer eggs (score 0), similar numbers of egg (score 1) and more eggs (score 2). The corresponding percentages of the scores were determined based on three replicates. Score 0 corresponded to less than 50% eggs, score 1 to 50–200%, and score 2 to over 200% of the egg count compared to the negative control. The means of the scores were later normalized to the range 0–2 (0–200%).

[1] = tested on: newly transformed schistosomula (NTS); experiment: In vitro screening against newly transformed schistosomula (Basel); format: cell-based, Schistosoma mansoni; details: 10 µM, 72 h incubation, Basel team
Experimental: At the Basel lab, infected B. glabrata snails were placed for 4 h under a light source to initiate the shedding of cercariae, which were collected, mechanically transformed into NTS, and kept in M199 medium supplemented with 5% fetal calf serum (FCS), 1% Mäsermix, and 1% penicillin/streptomycin (pen./strep.) 10,000 U/ml, at 37 °C and 5% CO2 [27]. To collect adult S. mansoni, mesenteric veins of infected hamsters were dissected on day 49 post-infection. The worms were placed in supplemented RPMI 1640 medium (containing 5% FCS, 1% pen., and 100 μg/ml strep.) and incubated at 37 °C with 5% CO2 until further use.
The Basel team performed the screening as follows: the stock solutions of each compound from the library (10 mM) were diluted with M199 medium (supplemented with 1% pen./strep., 1% Mäsermix, 5% FCS) and NTS solution (0.7 NTS/µL) in a transparent flat-bottom 96-well plate (Sarstedt, Switzerland), resulting in a final volume of 250 µL, 30–40 NTS, and a drug concentration of 10 µM. For adults, the drugs were diluted to 10 µM in 2 mL with RPMI 1640 medium (supplemented with 1% pen./strep. and 5% FCS) in a 24-well plate (Sarstedt, Switzerland), and three schistosome couples were added. […] For both life stages, DMSO served as a negative control (< 1% of the final volume). The plates were incubated at 37 °C and 5% CO2. […]

Schistosoma mansoni = details: cited from earlier work

Row | SMILES | Effect on egg production (adult S. mansoni couples) | other results
1 | CC1(C)Oc2ccc(C#N)cc2[C@H](n2ccccc2=O)[C@H]1O [OGHL00027] | affected | –
2 | CCCCc1nc2ccn(Cc3ccccc3C(=O)O)c(=O)c2n1Cc1ccc(-c2ccccc2-c2nn[nH]n2)cc1 [OGHL00034] | affected | –
3 | CCCSc1cc(C)c(C(=O)N=C(N)N)cc1S(C)(=O)=O [OGHL00050] | affected | –
4 | CCc1cc(C)c(C(=O)N=C(N)N)cc1S(C)(=O)=O [OGHL00053] | affected | –
5 | Cc1cc(C2CCC2)c(S(C)(=O)=O)cc1C(=O)N=C(N)N [OGHL00061] | affected | –
6 | O=C(O)c1ccc(-c2nc(NCc3ccccc3)c3c4c(sc3n2)CCCC4)cc1 [OGHL00079] | affected | –
7 | COc1ccc(CNc2nc(CCCCC(=O)O)nc3sc4c(c23)CCCC4)cc1Cl [OGHL00092] | affected | –
8 | O=C(O)c1ccc(-c2nc(NCc3ccc4c(c3)OCO4)c3cc(Cl)sc3n2)cc1 [OGHL00093] | affected | –
9 | COC(=O)c1cc(C(=O)N=C(N)N)c(C)cc1C [OGHL00094] | affected | –
10 | COc1ccc(CNc2nc(CCCCC(=O)O)nc3sc4ccccc4c23)cc1Cl [OGHL00101] | affected | –
11 | CCCCCCN(Cc1ccc(C#Cc2ccc(CCCC)cc2)cc1)c1ccc(O)c(C(=O)O)c1 [OGHL00126] | affected | –
12 | COc1nc(/C=C/c2nc3n(n2)CCCC3c2ccccc2C(F)(F)F)ccc1-n1cnc(C)c1 (centres unmarked) [OGHL00208] | affected | –
13 | COc1cc(C(=O)Nc2cn(Cc3ccc(Cl)c(Cl)c3)nn2)ccc1-n1cnc(C)c1 [OGHL00219] | affected | –
14 | COc1ccc(OCC(N)=O)cc1-c1cn2cc(C(=O)NCCc3c(OC)cccc3OC)sc2n1 [OGHL00241] | affected | –
15 | O=C(C1CCCCC1)N1CC(=O)N2CCc3ccccc3[C@@H]2C1 [OGHL00244, (R)-PZQ, reference compound] | drastically reduced | Activity against NTS [1]: greater than 65%; Attachment after 4 h (adult S. mansoni couples; adult couples, Giessen team): strong effects on attachment capacity; Pairing stability after 4 h (adult S. mansoni couples; adult couples, Giessen team): no effect on pairing stability; Pairing stability after 24 h (adult S. mansoni couples; adult couples, Giessen team): no effect on pairing stability
16 | O=C(C1CCCCC1)N1CC(=O)N2CCc3ccccc3[C@H]2C1 [OGHL00245] | – | Couples separated after 4 h (adult S. mansoni couples): > 50%; Couples separated after 24 h (adult S. mansoni couples): separation of all couples
17 | COc1ccc(OCC(=O)O)cc1-c1cn2cc(C(=O)NCCc3c(OC)cc(Cl)cc3OC)sc2n1 [OGHL00248] | affected | –
18 | O=C(C1CCCCC1)N1CC(=O)N2CCc3ccccc3C2C1 (centres unmarked) [PZQ, praziquantel] | – | EC50 (Schistosoma mansoni; at 4 h): 0.1 µg/mL; EC50 (Schistosoma mansoni; at 72 h, ref 32, read-out: EC50): 100 nM; EC50 (Schistosoma mansoni; at 72 h, ref 33): 0.05 µg/mL; Motility score in the initial approach (adult S. mansoni couples; within 24 h): about 0
